This passage reports IC50 results from patent publication US12673944B2, “Compounds having inhibitory activity against glucosylceramide synthase or pharmaceutically acceptable salt thereof, processes for preparing the same, and pharmaceutical compositions comprising the same” (YUHAN CORPORATION, priority 2019, dated 2026).

Experiment [1] concerns GM1 production in Jurkat cells. The experiment can be described thus: cells. The conditions noted are these: Homo sapiens, Jurkat, 72 h. Type of experiment: cell-based.
The target of experiment [2] is T1, glucosylceramide synthase (GCS) (Homo sapiens, UniProt Q16739).
T1 construct: The obtained supernatant was used; host or cells: A549 cells (lysate supernatant after sonication)
T1 sequence (Q16739 1-394): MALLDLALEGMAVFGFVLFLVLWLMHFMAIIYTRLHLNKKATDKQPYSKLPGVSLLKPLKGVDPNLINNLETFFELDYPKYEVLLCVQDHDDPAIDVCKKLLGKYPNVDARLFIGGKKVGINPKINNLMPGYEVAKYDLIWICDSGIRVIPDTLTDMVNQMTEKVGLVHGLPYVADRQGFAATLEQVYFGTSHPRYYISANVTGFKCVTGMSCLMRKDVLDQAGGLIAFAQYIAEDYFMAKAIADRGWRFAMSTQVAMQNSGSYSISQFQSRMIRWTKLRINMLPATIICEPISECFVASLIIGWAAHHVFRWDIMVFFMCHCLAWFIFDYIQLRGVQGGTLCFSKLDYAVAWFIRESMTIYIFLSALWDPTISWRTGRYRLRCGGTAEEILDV
The experiment in a line: GCS enzyme inhibition assay (A549 cell lysate, NBD C6-ceramide, HPLC fluorescence). To be noted: inhibitory activity against GCS, 37° C., 90 minutes. It is filed as biochemical. In a few lines:
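A549 cell lysate (50 mM HEPES pH 7.3) served as GCS source; reactions ran 90 min at 37° C, were stopped with chloroform/methanol and lipids extracted. Activity taken as GlcCer/(Cer+GlcCer) peak area, normalised between DMSO and ibiglustat controls.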

SMILES strings stand for the structures. pIC50: −log10 of the molar value.

For orientation: pIC50 means the IC50 on a negative log10 scale, so that one unit is a factor of ten. Lower therefore signals a high IC50. `CC(C)(C)OCc1ccc(-c2ccc3c(c2)OCC(C)(C)C3NC(=O)O[C@@H]2CN3CCC2CC3)cc1` (stereo partly drawn) [Example 141, (S)-quinuclidin-3-yl (7-(4-(tert-butoxymethyl)phenyl)-3,3-dimethylchroman-4-yl)carbamate]: the pIC50 in experiment [1] was 9.70; in experiment [2], 9.72.

With `CC1(C)COc2cc(-c3cc(OC(F)(F)F)ccc3Cl)ccc2C1NC(=O)O[C@@H]1CN2CCC1CC2` (stereo partly drawn) [Example 142, (S)-quinuclidin-3-yl (7-(2-chloro-5-(trifluoromethoxy)phenyl)-3,3-dimethylchroman-4-yl)carbamate], the values for the negative-log IC50 (pIC50) in experiment [1] and in experiment [2] were 9.72 and 9.17, respectively.

As for `CCCCOc1cccc(F)c1-c1ccc2c(c1)OCC(C)(C)C2NC(=O)O[C@@H]1CN2CCC1CC2` (stereo partly drawn) [Example 143, (S)-quinuclidin-3-yl (7-(2-butoxy-6-fluorophenyl)-3,3-dimethylchroman-4-yl)carbamate], the pIC50 is 8.84 in experiment [1] and 9.11 in experiment [2].

As to `CC1(C)COc2cc(-c3ccc(OCC(F)(F)F)nc3)ccc2C1NC(=O)O[C@@H]1CN2CCC1CC2` (stereo partly drawn) [Example 144, (S)-quinuclidin-3-yl (3,3-dimethyl-7-(6-(2,2,2-trifluoroethoxy)pyridin-3-yl)chroman-4-yl)carbamate], the figures for the pIC50 in experiment [1] and in experiment [2] were 8.92 and 9.77, respectively.

Take `COc1ccc2cc(-c3ccc4c(c3)OCC(C)(C)C4NC(=O)O[C@@H]3CN4CCC3CC4)ccc2c1` (stereo partly drawn) [Example 145, (S)-quinuclidin-3-yl (7-(6-methoxynaphthalen-2-yl)-3,3-dimethylchroman-4-yl)carbamate]: the pIC50 is 10.10 in experiment [1] and 9.16 in experiment [2].

`CCOc1ccc(-c2ccc3c(c2)OCC(C)(C)C3NC(=O)O[C@@H]2CN3CCC2CC3)cc1C(F)(F)F` (stereo partly drawn) [Example 146, (S)-quinuclidin-3-yl (7-(4-ethoxy-3-(trifluoromethyl)phenyl)-3,3-dimethylchroman-4-yl)carbamate]: the pIC50 in experiment [1] was 8.63; in experiment [2], 9.01.

On to `CC1(C)COc2cc(-c3coc4ccccc34)ccc2C1NC(=O)O[C@@H]1CN2CCC1CC2` (stereo partly drawn) [Example 147, (S)-quinuclidin-3-yl (7-(benzofuran-3-yl)-3,3-dimethylchroman-4-yl)carbamate], for which the figures for the negative logarithm of the IC50 (pIC50) in experiment [1] and in experiment [2] were 9.00 and 9.40, respectively.

Turning to `CN(C)c1cccc(-c2ccc3c(c2)OCC(C)(C)C3NC(=O)O[C@@H]2CN3CCC2CC3)c1` (stereo partly drawn) [Example 148, (S)-quinuclidin-3-yl (7-(3-(dimethylamino)phenyl)-3,3-dimethylchroman-4-yl)carbamate], the values for the pIC50 in experiment [1] and in experiment [2] were 10.52 and 9.13, respectively.

With `CC1(C)COc2cc(-c3ccc4c(c3)OC(F)(F)O4)ccc2C1NC(=O)O[C@@H]1CN2CCC1CC2` (stereo partly drawn) [Example 149, (S)-quinuclidin-3-yl (7-(2,2-difluorobenzo[d][1,3]dioxol-5-yl)-3,3-dimethylchroman-4-yl)carbamate], the pIC50 in experiment [1] is 10.52; in experiment [2], 9.39.

In the case of `CC1(C)COc2cc(-c3cc(Cl)ccc3Cl)ccc2C1NC(=O)O[C@@H]1CN2CCC1CC2` (stereo partly drawn) [Example 150, (S)-quinuclidin-3-yl (7-(2,5-dichlorophenyl)-3,3-dimethylchroman-4-yl)carbamate], the pIC50 in experiment [1] is 9.40; in experiment [2] it was 9.14.

As for `CC(C)c1cccc(-c2ccc3c(c2)OCC(C)(C)C3NC(=O)O[C@@H]2CN3CCC2CC3)c1` (stereo partly drawn) [Example 151, (S)-quinuclidin-3-yl (7-(3-isopropylphenyl)-3,3-dimethylchroman-4-yl)carbamate], the results for the pIC50 in experiment [1] and in experiment [2] were 9.51 and 9.28, respectively.

Consider `CC(C)(C)c1cccc(-c2ccc3c(c2)OCC(C)(C)C3NC(=O)O[C@@H]2CN3CCC2CC3)c1` (stereo partly drawn) [Example 152, (S)-quinuclidin-3-yl (7-(3-(tert-butyl)phenyl)-3,3-dimethylchroman-4-yl)carbamate], for which the pIC50 in experiment [1] was 9.66; in experiment [2], 9.04.

Turning to `COc1ccc(Cl)c(-c2ccc3c(c2)OCC(C)(C)C3NC(=O)O[C@@H]2CN3CCC2CC3)c1` (stereo partly drawn) [Example 153, (S)-quinuclidin-3-yl (7-(2-chloro-5-methoxyphenyl)-3,3-dimethylchroman-4-yl)carbamate], the results for the pIC50 in experiment [1] and in experiment [2] were 10.22 and 9.32, respectively.

In the case of `CC1(C)COc2cc(-c3cccc(-c4ccccc4)c3)ccc2C1NC(=O)O[C@@H]1CN2CCC1CC2` (stereo partly drawn) [Example 154, (S)-quinuclidin-3-yl (7-([1,1′-biphenyl]-3-yl)-3,3-dimethylchroman-4-yl)carbamate], the values for the pIC50 in experiment [1] and in experiment [2] were 9.39 and 9.13, respectively.

As to `CC1(C)COc2cc(-c3cncc4ccccc34)ccc2C1NC(=O)O[C@@H]1CN2CCC1CC2` (stereo partly drawn) [Example 155, (S)-quinuclidin-3-yl (7-(isoquinolin-4-yl)-3,3-dimethylchroman-4-yl)carbamate], the pIC50 in experiment [1] is 9.11; in experiment [2], 9.22.

`CC1(C)COc2cc(-c3ccccc3F)ccc2C1NC(=O)O[C@@H]1CN2CCC1CC2` (stereo partly drawn) [Example 156, (S)-quinuclidin-3-yl (7-(2-fluorophenyl)-3,3-dimethylchroman-4-yl)carbamate]: the pIC50 in experiment [1] is 9.57; in experiment [2], 9.54.

As to `CC1(C)COc2cc(-c3ccccc3OC(F)(F)F)ccc2C1NC(=O)O[C@@H]1CN2CCC1CC2` (stereo partly drawn) [Example 157, (S)-quinuclidin-3-yl (3,3-dimethyl-7-(2-(trifluoromethoxy)phenyl)chroman-4-yl)carbamate], the pIC50 in experiment [1] was 9.92; in experiment [2], 9.32.

Regarding `CCOc1cccc(-c2ccc3c(c2)OCC(C)(C)C3NC(=O)O[C@@H]2CN3CCC2CC3)c1` (stereo partly drawn) [Example 158, (S)-quinuclidin-3-yl (7-(3-ethoxyphenyl)-3,3-dimethylchroman-4-yl)carbamate], the pIC50 in experiment [1] was 8.82; in experiment [2] it was 9.38.

Take `Cn1ncc2c(-c3ccc4c(c3)OCC(C)(C)C4NC(=O)O[C@@H]3CN4CCC3CC4)cccc21` (stereo partly drawn) [Example 159, (S)-quinuclidin-3-yl (3,3-dimethyl-7-(1-methyl-1H-indazol-4-yl)chroman-4-yl)carbamate]: the pIC50 in experiment [1] was 9.26; in experiment [2], 9.24.

For the compound `CC1(C)COc2cc(-c3cccc4ccncc34)ccc2C1NC(=O)O[C@@H]1CN2CCC1CC2` (stereo partly drawn) [Example 160, (S)-quinuclidin-3-yl (7-(isoquinolin-8-yl)-3,3-dimethylchroman-4-yl)carbamate], the pIC50 in experiment [1] was 9.27; in experiment [2] it was 9.28.

On to `CC1(C)COc2cc(-c3ccc(C4CC4)cc3)ccc2C1NC(=O)O[C@@H]1CN2CCC1CC2` (stereo partly drawn) [Example 161, (S)-quinuclidin-3-yl (7-(4-cyclopropylphenyl)-3,3-dimethylchroman-4-yl)carbamate], for which the pIC50 in experiment [1] was 9.74; in experiment [2], 9.42.

In the case of `COc1ccccc1-c1ccc2c(c1)OCC(C)(C)C2NC(=O)O[C@@H]1CN2CCC1CC2` (stereo partly drawn) [Example 162, (S)-quinuclidin-3-yl (7-(2-methoxyphenyl)-3,3-dimethylchroman-4-yl)carbamate], the pIC50 was 10.70 in experiment [1] and 9.28 in experiment [2].

Regarding `CC1(C)COc2cc(-c3ccc4c(c3)CCCO4)ccc2C1NC(=O)O[C@@H]1CN2CCC1CC2` (stereo partly drawn) [Example 163, (S)-quinuclidin-3-yl (3′,3′-dimethyl-[6,7′-bichroman]-4′-yl)carbamate], the pIC50 in experiment [1] is 9.30; in experiment [2], 9.23.

In the case of `CC1(C)COc2cc(-c3cc(Cl)cc(C(F)(F)F)c3)ccc2C1NC(=O)O[C@@H]1CN2CCC1CC2` (stereo partly drawn) [Example 164, (S)-quinuclidin-3-yl (7-(3-chloro-5-(trifluoromethyl)phenyl)-3,3-dimethylchroman-4-yl)carbamate], the pIC50 was 8.49 in experiment [1] and 8.80 in experiment [2].

For the compound `CC1(C)COc2cc(-c3cccc4cccnc34)ccc2C1NC(=O)O[C@@H]1CN2CCC1CC2` (stereo partly drawn) [Example 165, (S)-quinuclidin-3-yl (3,3-dimethyl-7-(quinolin-8-yl)chroman-4-yl)carbamate], the pIC50 in experiment [1] was 9.18; in experiment [2], 9.09.

As for `COc1cccc(-c2ccc3c(c2)OCC(C)(C)C3NC(=O)O[C@@H]2CN3CCC2CC3)c1` (stereo partly drawn) [Example 166, (S)-quinuclidin-3-yl (7-(3-methoxyphenyl)-3,3-dimethylchroman-4-yl)carbamate], the negative-log IC50 (pIC50) in experiment [1] is 10.15; in experiment [2], 9.51.

Take `CC(C)Oc1ccc(-c2ccc3c(c2)OCC(C)(C)C3NC(=O)O[C@@H]2CN3CCC2CC3)cc1Cl` (stereo partly drawn) [Example 167, (S)-quinuclidin-3-yl (7-(3-chloro-4-isopropoxyphenyl)-3,3-dimethylchroman-4-yl)carbamate]: the results for the pIC50 in experiment [1] and in experiment [2] were 8.48 and 9.15, respectively.

With `COc1cccc(OC)c1-c1ccc2c(c1)OCC(C)(C)C2NC(=O)O[C@@H]1CN2CCC1CC2` (stereo partly drawn) [Example 168, (S)-quinuclidin-3-yl (7-(2,6-dimethoxyphenyl)-3,3-dimethylchroman-4-yl)carbamate], the results for the pIC50 in experiment [1] and in experiment [2] were 8.69 and 8.85, respectively.

With `CC1(C)COc2cc(-c3ccccc3Cl)ccc2C1NC(=O)O[C@@H]1CN2CCC1CC2` (stereo partly drawn) [Example 169, (S)-quinuclidin-3-yl (7-(2-chlorophenyl)-3,3-dimethylchroman-4-yl)carbamate], the figures for the pIC50 in experiment [1] and in experiment [2] were 9.60 and 9.43, respectively.
